Assay results as given in ChEMBL document CHEMBL5260810, “Inhibition of bromodomain-containing protein 9 for the prevention of epigenetically-defined drug resistance” (Bioorg Med Chem Lett, 2017).
pIC50, pKd: −log10 of the molar value.

Experiments:
[1] = molecular target: T1, Ephrin type-A receptor 1 (Homo sapiens) (UniProt P21709); assay: Inhibition of EphA1 (unknown origin) at 1 uM relative to control
T1 sequence (whole entry): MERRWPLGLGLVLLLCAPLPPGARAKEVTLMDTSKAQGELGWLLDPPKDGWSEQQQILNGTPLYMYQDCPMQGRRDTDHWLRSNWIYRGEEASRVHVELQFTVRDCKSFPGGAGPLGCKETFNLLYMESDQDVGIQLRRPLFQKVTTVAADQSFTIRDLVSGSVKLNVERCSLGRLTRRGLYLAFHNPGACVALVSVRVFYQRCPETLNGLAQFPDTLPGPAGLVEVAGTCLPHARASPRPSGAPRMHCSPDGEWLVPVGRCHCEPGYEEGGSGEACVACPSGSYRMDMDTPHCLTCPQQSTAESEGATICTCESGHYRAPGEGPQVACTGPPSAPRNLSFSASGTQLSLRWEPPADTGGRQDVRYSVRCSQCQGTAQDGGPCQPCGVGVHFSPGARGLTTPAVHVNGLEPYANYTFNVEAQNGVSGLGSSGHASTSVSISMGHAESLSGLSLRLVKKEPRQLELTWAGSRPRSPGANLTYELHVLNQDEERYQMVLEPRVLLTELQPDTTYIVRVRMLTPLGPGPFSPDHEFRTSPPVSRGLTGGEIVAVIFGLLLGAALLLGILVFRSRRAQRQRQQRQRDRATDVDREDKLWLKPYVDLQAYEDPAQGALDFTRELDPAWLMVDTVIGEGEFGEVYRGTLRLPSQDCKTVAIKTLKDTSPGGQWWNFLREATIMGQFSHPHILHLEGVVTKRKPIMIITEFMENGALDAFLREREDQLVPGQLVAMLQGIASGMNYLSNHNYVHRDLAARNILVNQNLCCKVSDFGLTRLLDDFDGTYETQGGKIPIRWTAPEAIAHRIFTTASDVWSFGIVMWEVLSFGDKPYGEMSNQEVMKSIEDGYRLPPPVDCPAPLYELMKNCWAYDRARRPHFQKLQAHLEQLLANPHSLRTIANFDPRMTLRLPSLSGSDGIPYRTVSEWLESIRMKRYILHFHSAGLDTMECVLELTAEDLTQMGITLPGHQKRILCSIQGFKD

SU-DHL-16 = assay: Cytotoxicity against human SU-DHL-16 cells measured after 8 days; assay type: functional, cell-based; conditions: SU-DHL-16, 192 h
[2] = molecular target: Cyclin-dependent kinase 2/cyclin A (Homo sapiens) (UniProt P24941+P20248+P78396); assay: Inhibition of CDK2/cyclin A (unknown origin) at 1 uM relative to control; assay type: protein-complex assay
HT-29 = assay: Cytotoxicity against human HT-29 cells measured after 8 days; assay type: functional, cell-based; conditions: HT-29, 192 h
NCI-H2405 = assay: Cytotoxicity against human NCI-H2405 cells measured after 8 days; assay type: functional, cell-based; conditions: NCI-H2405, 192 h
[3] = molecular target: T2, Bromodomain-containing protein 7 (Homo sapiens, UniProt Q9NPI1); assay: Binding affinity to human partial length BRD7 (L125 to R254 residues) expressed in mammalian expression system by BROMOscan assay
T2 sequence (Q9NPI1 whole entry): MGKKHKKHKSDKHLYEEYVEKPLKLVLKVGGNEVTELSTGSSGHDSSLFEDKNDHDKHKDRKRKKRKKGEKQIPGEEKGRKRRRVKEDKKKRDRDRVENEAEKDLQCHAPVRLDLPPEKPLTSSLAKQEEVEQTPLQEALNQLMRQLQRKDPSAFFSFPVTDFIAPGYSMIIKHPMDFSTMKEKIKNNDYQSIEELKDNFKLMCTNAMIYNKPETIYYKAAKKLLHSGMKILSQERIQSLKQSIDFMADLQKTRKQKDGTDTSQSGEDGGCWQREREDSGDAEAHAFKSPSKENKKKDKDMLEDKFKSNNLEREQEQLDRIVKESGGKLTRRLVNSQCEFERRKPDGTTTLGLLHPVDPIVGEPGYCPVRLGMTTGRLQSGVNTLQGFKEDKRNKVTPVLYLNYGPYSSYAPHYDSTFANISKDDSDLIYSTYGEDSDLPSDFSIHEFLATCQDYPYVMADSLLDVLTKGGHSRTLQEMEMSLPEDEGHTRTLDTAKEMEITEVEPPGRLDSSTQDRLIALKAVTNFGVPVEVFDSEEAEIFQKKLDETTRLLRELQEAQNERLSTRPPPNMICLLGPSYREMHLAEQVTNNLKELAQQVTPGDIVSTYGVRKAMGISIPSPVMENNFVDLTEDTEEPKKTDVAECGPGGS

[4] = molecular target: Adrenergic receptor alpha-1 (Rattus norvegicus) (UniProt P15823+P23944+P43140); assay: Displacement of [3H]-prazosin from rat alpha1 adrenoceptor at 10 uM after 60 mins by scintillation counting analysis relative to control; assay type: protein assay
BT-549 = assay: Cytotoxicity against human BT-549 cells measured after 8 days; assay type: functional, cell-based; conditions: BT-549, 192 h
[5] = molecular target: Nucleosome-remodeling factor subunit BPTF (Homo sapiens, UniProt Q12830); assay: Binding affinity to human partial length FALZ (S2791 to H2911 residues) expressed in bacterial expression system by BROMOscan assay
NCI-H441 = assay: Cytotoxicity against human NCI-H441 cells measured after 8 days; assay type: functional, cell-based; conditions: NCI-H441, 192 h
U-937 = assay: Cytotoxicity against human U-937 cells measured after 8 days; assay type: functional, cell-based; conditions: U-937, 192 h
[6] = Cytotoxicity against human MOR cells measured after 8 days; assay type: functional, cell-based; conditions: 192 h
[7] = molecular target: Misshapen-like kinase 1 (Homo sapiens) (UniProt Q8N4C8); assay: Inhibition of Mink1 (unknown origin) at 1 uM relative to control
Misshapen-like kinase 1 (Homo sapiens), sequence (Q8N4C8 whole entry, looked up): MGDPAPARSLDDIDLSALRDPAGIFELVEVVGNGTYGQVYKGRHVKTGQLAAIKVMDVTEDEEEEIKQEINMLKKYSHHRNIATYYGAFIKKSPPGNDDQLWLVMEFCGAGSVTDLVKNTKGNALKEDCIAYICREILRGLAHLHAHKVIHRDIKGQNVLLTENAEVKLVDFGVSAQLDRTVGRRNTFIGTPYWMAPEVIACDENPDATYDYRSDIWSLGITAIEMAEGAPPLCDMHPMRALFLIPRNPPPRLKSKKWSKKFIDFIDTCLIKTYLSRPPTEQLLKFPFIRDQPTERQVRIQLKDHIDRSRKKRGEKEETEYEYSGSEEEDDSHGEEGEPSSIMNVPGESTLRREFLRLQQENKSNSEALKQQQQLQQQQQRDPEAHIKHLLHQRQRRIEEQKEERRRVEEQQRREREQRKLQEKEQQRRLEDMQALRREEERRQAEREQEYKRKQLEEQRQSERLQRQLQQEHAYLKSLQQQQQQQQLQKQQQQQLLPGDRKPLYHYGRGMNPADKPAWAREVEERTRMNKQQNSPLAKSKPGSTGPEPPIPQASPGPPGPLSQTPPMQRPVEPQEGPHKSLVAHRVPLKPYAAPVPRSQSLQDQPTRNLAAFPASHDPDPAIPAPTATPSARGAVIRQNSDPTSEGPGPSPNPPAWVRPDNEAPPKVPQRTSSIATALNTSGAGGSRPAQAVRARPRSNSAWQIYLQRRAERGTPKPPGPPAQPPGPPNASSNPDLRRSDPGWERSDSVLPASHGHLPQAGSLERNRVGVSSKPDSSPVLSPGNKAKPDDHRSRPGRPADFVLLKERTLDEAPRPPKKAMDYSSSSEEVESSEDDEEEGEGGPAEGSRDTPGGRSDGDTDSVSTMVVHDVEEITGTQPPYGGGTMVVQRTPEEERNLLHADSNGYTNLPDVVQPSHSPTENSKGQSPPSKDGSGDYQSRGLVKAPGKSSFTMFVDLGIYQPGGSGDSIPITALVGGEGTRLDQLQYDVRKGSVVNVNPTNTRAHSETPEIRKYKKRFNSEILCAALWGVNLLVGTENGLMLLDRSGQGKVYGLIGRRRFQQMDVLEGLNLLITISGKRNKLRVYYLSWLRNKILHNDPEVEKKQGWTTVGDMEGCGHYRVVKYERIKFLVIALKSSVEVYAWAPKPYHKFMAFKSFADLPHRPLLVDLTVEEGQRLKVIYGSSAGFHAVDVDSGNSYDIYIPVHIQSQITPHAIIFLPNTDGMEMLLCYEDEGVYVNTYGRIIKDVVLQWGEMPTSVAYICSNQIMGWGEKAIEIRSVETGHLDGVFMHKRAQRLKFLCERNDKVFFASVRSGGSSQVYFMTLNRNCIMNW

SW-620 = assay: Cytotoxicity against human SW620 cells measured after 8 days; assay type: functional, cell-based; conditions: SW-620, 192 h
DLD-1 = assay: Cytotoxicity against human DLD-1 cells measured after 8 days; assay type: functional, cell-based; conditions: DLD-1, 192 h
NCI-H1355 = assay: Cytotoxicity against human NCI-H1355 cells measured after 8 days; assay type: functional, cell-based; conditions: NCI-H1355, 192 h
EOL1 = assay: Cytotoxicity against human EOL1 cells measured after 8 days; assay type: functional, cell-based; conditions: EOL1, 192 h
MX1 = assay: Cytotoxicity against human MX1 cells measured after 8 days; assay type: functional, cell-based; conditions: MX1, 192 h
NCI-H226 = assay: Cytotoxicity against human NCI-H226 cells measured after 8 days; assay type: functional, cell-based; conditions: NCI-H226, 192 h
OPM-2 = assay: Cytotoxicity against human OPM-2 cells measured after 8 days; assay type: functional, cell-based; conditions: OPM-2, 192 h
LP-1 = assay: Cytotoxicity against human LP-1 cells measured after 8 days; assay type: functional, cell-based; conditions: LP-1, 192 h
SW48 = assay: Cytotoxicity against human SW48 cells measured after 8 days; assay type: functional, cell-based; conditions: SW48, 192 h
HPAC = assay: Cytotoxicity against human HPAC cells measured after 8 days; assay type: functional, cell-based; conditions: 192 h

SMILES	inhibition [1]	pIC50 (SU-DHL-16)	inhibition [2]	pIC50 (HT-29)	pIC50 (NCI-H2405)	pKd [3]	Activity [4]	pIC50 (BT-549)	pKd [5]	pIC50 (NCI-H441)	pIC50 (U-937)	pIC50 [6]	inhibition [7]	pIC50 (SW-620)	pIC50 (DLD-1)	pIC50 (NCI-H1355)	pIC50 (EOL1)	pIC50 (MX1)	pIC50 (NCI-H226)	pIC50 (OPM-2)	also measured
C/C=C/Cn1cc(-c2ccc(C(=O)N3CCOCC3)cc2)c2cc[nH]c2c1=O	0.8%	4.99	1.6%	4.70	4.70	6.70	7%	4.70	< 5.00	4.70	4.70	4.70	1.5%	4.70	4.70	4.70	6.02	4.70	4.70	5.00	pIC50 (LP-1): 4.70; pIC50 (SW48): 4.70; pIC50 (HPAC): 4.70
C/C=C/Cn1cc(-c2ccc(C(C)(C)O)cc2OC)c2cc[nH]c2c1=O	4%	4.86	1%	4.70	4.70	6.47	7%	4.91	< 5.00	4.70	4.70	4.70	18%	4.70	4.70	4.70	5.48	4.70	4.70	4.86	pIC50 (LP-1): 4.71; pIC50 (SW48): 4.70; pIC50 (HPAC): 4.70
C/C=C/Cn1cc(-c2cc(OC)c(C(=O)N3CCOCC3)cc2OC)c2cc(C)[nH]c2c1=O	4%	5.70	0%	5.70	5.70	6.96	3%	5.70	< 5.00	5.70	5.70	5.70	8%	5.70	5.70	5.70	5.87	5.70	5.70	5.70	pIC50 (LP-1): 5.70; pIC50 (SW48): 5.70; pIC50 (HPAC): 5.70
C/C=C/Cn1cc(-c2cc(OC)c(C(C)(C)O)cc2OC)c2cc(C)[nH]c2c1=O						6.28			< 5.00												
